Peptide text beside a SMILES is read from it.
Tests used:
[1] = system: human red blood cells (hRBC); assay: Hemolysis of human red blood cells; assay type: cell-based; settings: red cells of human, 1 h
Method in brief: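 Percent hemolysis is OD540 of peptide-treated supernatant relative to water-lysed cells. Each peptide was tested at 200 μg/mL against 20% (v/v) washed human erythrocytes. Incubation was 1 h at 37 °C, 300 rpm.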

[2] = system: Escherichia coli ATCC 25922; settings: ATCC 25922
Method in brief: (§1)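 Standardized inocula (0.5 McFarland in saline, then diluted in MHII broth to approximately 5×10^5 CFU/mL) were exposed to two-fold dilution series of each peptide in the presence of polysorbate 80 (0.002% final).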

[3] = system: Escherichia coli MCR-1 Af 45; settings: Mueller-Hinton broth II, 18-20 hours at 35° C.
Method in brief: as §1

[4] = system: Klebsiella pneumoniae SSI3010; settings: SSI3010
Method in brief: as §1

SMILES | Hemolysis at 0.2 g/L [1] [%] | Escherichia coli ATCC 25922 MIC [2] [mg/L] | Escherichia coli MCR-1 Af 45 MIC [3] [mg/L] | Klebsiella pneumoniae SSI3010 MIC [4] [mg/L]
CC[C@H](C)[C@H](NC(=O)[C@@H]1C[C@@H](O)CN1C(=O)[C@@H](N)C(C)C)C(=O)N[C@@H](CCCNC(=N)N)C(=O)N[C@@H](Cc1ccc(O)cc1)C(=O)N[C@@H]1C(=O)N[C@@H](CC(N)=O)C(=O)N[C@@H](CCCNC(=N)N)C(=O)N[C@@H](CCN)C(=O)N[C@@H]([C@@H](C)O)C(=O)N[C@H](CCN)C(=O)N[C@@H](CCCCN)C(=O)N[C@H](C(=O)N[C@@H](CCN)C(=O)N[C@H](C(=O)N[C@@H](Cc2ccc(O)cc2)C(=O)O)[C@@H](C)O)CSSC1(C)C [Example 154] (HELM PEPTIDE1{V.[Hyp].I.R.Y.[Pen].N.R.[Dab].T.[NCC[C@@H](N[*:1])C(=O)[*:2]].K.C.[Dab].T.Y}$PEPTIDE1,PEPTIDE1,6:R3-13:R3$$$V2.0) | 0 | 0.25 | 0.25 | 0.5
CC[C@H](C)[C@H](NC(=O)[C@@H]1C[C@@H](O)CN1C(=O)[C@@H](N)C(C)C)C(=O)N[C@@H](Cc1ccc(O)cc1)C(=O)N[C@@H](Cc1ccc(O)cc1)C(=O)N[C@@H]1C(=O)N[C@@H](CC(N)=O)C(=O)N[C@@H](CCCNC(=N)N)C(=O)N[C@@H](CCN)C(=O)N[C@@H]([C@@H](C)O)C(=O)N[C@H](CCN)C(=O)N[C@@H](CCCCN)C(=O)N[C@H](C(=O)N[C@@H](CCN)C(=O)N[C@@H](CCCNC(=N)N)C(=O)N[C@@H](Cc2ccc(O)cc2)C(=O)O)CSSC1(C)C [Example 155] (HELM PEPTIDE1{V.[Hyp].I.Y.Y.[Pen].N.R.[Dab].T.[NCC[C@@H](N[*:1])C(=O)[*:2]].K.C.[Dab].R.Y}$PEPTIDE1,PEPTIDE1,6:R3-13:R3$$$V2.0) | 0 | 0.125 | 0.0625 | 0.25
CC[C@H](C)[C@H](NC(=O)[C@@H]1C[C@@H](O)CN1C(=O)[C@@H](N)C(C)C)C(=O)N[C@@H](CC(C)C)C(=O)N[C@@H](Cc1ccc(O)cc1)C(=O)N[C@@H]1C(=O)N[C@@H](CC(N)=O)C(=O)N[C@@H](CCCNC(=N)N)C(=O)N[C@@H](CCN)C(=O)N[C@@H]([C@@H](C)O)C(=O)N[C@H](CCN)C(=O)N[C@@H](CCCCN)C(=O)N[C@H](C(=O)N[C@@H](CCN)C(=O)N[C@@H](CCCNC(=N)N)C(=O)N[C@@H](Cc2ccc(O)cc2)C(=O)O)CSSC1(C)C [Example 156] (HELM PEPTIDE1{V.[Hyp].I.L.Y.[Pen].N.R.[Dab].T.[NCC[C@@H](N[*:1])C(=O)[*:2]].K.C.[Dab].R.Y}$PEPTIDE1,PEPTIDE1,6:R3-13:R3$$$V2.0) | 0 | 0.25 | 0.25 | 0.5
CC[C@H](C)[C@H](NC(=O)[C@@H]1C[C@@H](O)CN1C(=O)[C@@H](N)C(C)C)C(=O)N[C@@H](CC(N)=O)C(=O)N[C@@H](Cc1ccc(O)cc1)C(=O)N[C@@H]1C(=O)N[C@@H](CC(N)=O)C(=O)N[C@@H](CCCNC(=N)N)C(=O)N[C@@H](CCN)C(=O)N[C@@H]([C@@H](C)O)C(=O)N[C@H](CCN)C(=O)N[C@@H](CCCCN)C(=O)N[C@H](C(=O)N[C@@H](CCN)C(=O)N[C@@H](CCCNC(=N)N)C(=O)N[C@@H](Cc2ccc(O)cc2)C(=O)O)CSSC1(C)C [Example 157] (HELM PEPTIDE1{V.[Hyp].I.N.Y.[Pen].N.R.[Dab].T.[NCC[C@@H](N[*:1])C(=O)[*:2]].K.C.[Dab].R.Y}$PEPTIDE1,PEPTIDE1,6:R3-13:R3$$$V2.0) | 0 | 0.125 | 0.125 | 0.5

Source: US20230295234A1, “ANTIMICROBIAL PEPTIDOMIMETICS” (SPEXIS AG, priority 2020, published 2023)
